# Assay results taken from publication PMC4819940 (Cancer Chemotherapy and Pharmacology, 2016).
# Like-named read-outs stand apart in the source and are kept apart here.
# Test: Plasma pharmacokinetics of AZD5363 after a single dose and multiple doses
# Assay type: in vivo, human
# Details: for AUC / Tmax / Cmax / Vd/F: oral; for AUC / Cmax / Vd/F / C ss,max: geometric mean (CV%); for Tmax / t ss,max / t half: median (range); for Vd/F: read-out: V ss/F
# Source text: […] area under the plasma concentration–time curve (AUC), maximum plasma (peak) drug concentration (Cmax), time to reach Cmax (tmax), apparent plasma clearance (CL/F), and oral volume of distribution at steady state (Vss/F).
# [1] = human, plasma, single dose, 80 mg bid continuous cohort, n=3
# [2] = human, plasma, single dose, 240 mg bid continuous cohort, n=7
# [3] = human, plasma, single dose, 320 mg bid continuous cohort, n=6
# [4] = human, plasma, single dose, 360 mg bid intermittent 4/3 cohort, n=8
# [5] = human, plasma, single dose, 400 mg bid continuous cohort, n=5
# [6] = human, plasma, single dose, 480 mg bid intermittent 4/3 cohort, n=6
# [7] = human, plasma, single dose, 640 mg bid intermittent 2/5 cohort, n=6
# [8] = human, plasma, single dose, Total, n=41
# [9] = multiple doses, 80 mg bid continuous, n=3
# [10] = multiple doses, 240 mg bid continuous, n=7
# [11] = multiple doses, 320 mg bid continuous, n=4
# [12] = multiple doses, 360 mg bid intermittent 4/3, n=7
# [13] = multiple doses, 400 mg bid continuous, n=4
# [14] = multiple doses, 480 mg bid intermittent 4/3, n=6
# [15] = multiple doses, 640 mg bid intermittent 2/5, n=6
smiles,measurement,setting,value
NC1(C(=O)N[C@@H](CCO)c2ccc(Cl)cc2)CCN(c2ncnc3[nH]ccc23)CC1 [AZD5363],AUC,"human, plasma, 80 mg, multiple doses, 80 mg bid continuous, n=3, read-out: AUCss",1520 ng·h/mL
same,AUC,"human, plasma, 80 mg, single dose, 80 mg bid continuous cohort, n=3, read-out: AUC",1260 ng·h/mL
same,AUC,"human, plasma, 240 mg, multiple doses, 240 mg bid continuous, n=7, read-out: AUCss",4840 ng·h/mL
same,AUC,"human, plasma, 240 mg, single dose, 240 mg bid continuous cohort, n=7, read-out: AUC",3290 ng·h/mL
same,AUC,"human, plasma, 320 mg, multiple doses, 320 mg bid continuous, n=4, read-out: AUCss",5770 ng·h/mL
same,AUC,"human, plasma, 320 mg, single dose, 320 mg bid continuous cohort, n=6, read-out: AUC",7110 ng·h/mL
same,AUC,"human, plasma, 360 mg, multiple doses, 360 mg bid intermittent 4/3, n=7, read-out: AUCss",5870 ng·h/mL
same,AUC,"human, plasma, 360 mg, single dose, 360 mg bid intermittent 4/3 cohort, n=8, read-out: AUC",4770 ng·h/mL
same,AUC,"human, plasma, 400 mg, multiple doses, 400 mg bid continuous, n=4, read-out: AUCss",9670 ng·h/mL
same,AUC,"human, plasma, 400 mg, single dose, 400 mg bid continuous cohort, n=5, read-out: AUC",4670 ng·h/mL
same,AUC,"human, plasma, 480 mg, multiple doses, 480 mg bid intermittent 4/3, n=6, read-out: AUCss",10900 ng·h/mL
same,AUC,"human, plasma, 480 mg, single dose, 480 mg bid intermittent 4/3 cohort, n=6, read-out: AUC",7210 ng·h/mL
same,AUC,"human, plasma, 640 mg, multiple doses, 640 mg bid intermittent 2/5, n=6, read-out: AUCss",14200 ng·h/mL
same,AUC,"human, plasma, 640 mg, single dose, 640 mg bid intermittent 2/5 cohort, n=6, read-out: AUC",11400 ng·h/mL
same,AUC,"human, plasma, multiple doses, Total, n=37, read-out: AUCss",6820 ng·h/mL
same,Tmax,"human, plasma, single dose, all cohorts, read-out: tmax",1.98 h
same,Cmax,[1],217 ng/mL
same,Vd/F,[1],715 L
same,Tmax,"human, plasma, single dose, 80 mg bid continuous cohort, n=3, read-out: t max",2 h
same,Cmax,[2],628 ng/mL
same,Vd/F,[2],682 L
same,Tmax,"human, plasma, single dose, 240 mg bid continuous cohort, n=7, read-out: t max",1.9 h
same,Cmax,[3],1580 ng/mL
same,Vd/F,[3],370 L
same,Tmax,"human, plasma, single dose, 320 mg bid continuous cohort, n=6, read-out: t max",1.98 h
same,Cmax,[4],1010 ng/mL
same,Vd/F,[4],681 L
same,Tmax,"human, plasma, single dose, 360 mg bid intermittent 4/3 cohort, n=8, read-out: t max",1.99 h
same,Cmax,[5],1060 ng/mL
same,Vd/F,[5],777 L
same,Tmax,"human, plasma, single dose, 400 mg bid continuous cohort, n=5, read-out: t max",1.97 h
same,Cmax,[6],1910 ng/mL
same,Vd/F,[6],502 L
same,Tmax,"human, plasma, single dose, 480 mg bid intermittent 4/3 cohort, n=6, read-out: t max",1.02 h
same,Cmax,[7],2100 ng/mL
same,Vd/F,[7],587 L
same,Tmax,"human, plasma, single dose, 640 mg bid intermittent 2/5 cohort, n=6, read-out: t max",2.02 h
same,Cmax,[8],1090 ng/mL
same,AUC,"human, plasma, single dose, Total, n=41, read-out: AUC",5180 ng·h/mL
same,Vd/F,[8],595 L
same,half-life,"human, plasma, single oral doses",~10 h
same,"C ss,max",[9],318.3 (128.4) ng/mL
same,"t ss,max",[9],1 (0.98‒1.97) hours
same,"C ss,max",[10],874.4 (89.7) ng/mL
same,"t ss,max",[10],1.98 (0.97‒3.9) hours
same,"C ss,max",[11],1222 (53.7) ng/mL
same,"t ss,max",[11],1.465 (0.92‒2.12) hours
same,"C ss,max",[12],1366 (64.9) ng/mL
same,"t ss,max",[12],0.98 (0.5‒2) hours
same,"C ss,max",[13],2094 (56.6) ng/mL
same,"t ss,max",[13],2 (0.93‒2) hours
same,"C ss,max",[14],2670 (36.7) ng/mL
same,"t ss,max",[14],1.99 (1‒2.05) hours
same,"C ss,max",[15],2618 (20.0) ng/mL
same,"t ss,max",[15],2.01 (2‒3.97) hours
same,"C ss,max","multiple doses, Total, n=37",1430 (96.6) ng/mL
same,"t ss,max","multiple doses, Total, n=37",1.98 (0.5‒3.97) hours
same,"t ss,max","multiple dosing, all cohorts",1.98 (0.50–3.97) hours
same,dose proportionality of exposure,"single and multiple doses, 80- to 640-mg doses",generally dose proportional
same,t half,"single dose, 80 mg bid continuous cohort, n=3",11.8 (8.5‒12.2) hours
same,t half,"single dose, 240 mg bid continuous cohort, n=7",10.2 (8.2‒10.9) hours
same,t half,"single dose, 320 mg bid continuous cohort, n=6",9.7 (7.3‒10.6) hours
